From patent US20170065533A1 (YISSUM RESEARCH DEVELOPMENT COMPANY OF THE HEBREW …, priority 2011, published 2017)

Legend:
[1] = cited from earlier work
[2] = cited from earlier work; remark: listed apart in the source
[3] = 50 mg/day over one year, cited from earlier work
[4] = Particle size, PDI and zeta potential of nanocarriers; assay type: physicochemical; settings: INPs conjugated to MAbs
Protocol: mean diameter and particle size distribution measurements were carried out utilizing an ALV Noninvasive Back Scattering High Performance Particle Sizer (ALV-NIBS HPPS, Langen, Germany) at 25° C. and using water as diluent.
the zeta potential of the NPs was measured using the Malvern zetasizer (Malvern, UK) diluted in HPLC grade water.
The size and zeta potential of the various NPs were measured in water using a DTS zetasizer (Malvern, UK).
The mean diameter and the zeta potential of NCs were characterized using Malvern's Zetasizer (Nano series, Nanos-ZS, UK) at 25° C. and using water as diluent.
Mean diameter and zeta potential of the NCs were characterized using Malvern's Zetasizer (Nano ZSP) at 25° C. For the sample preparation, 200 mg of the anhydrous semi-solid preparation were dissolved in 2 mL HPLC water. The sample was vortexed and further centrifuged (4000 rpm, 10 min). Then, 1.2 mL of the supernatant was collected and centrifuged again (14000 rpm, 10 min). Finally, 1 mL of the obtained supernatant was collected and evaluated.

[5] = Conjugation efficiency of MAbs to NPs (BCA assay); assay type: physicochemical; settings: INPs conjugated to MAbs
Protocol: The conjugation efficiency of the macromolecules such as MAbs was determined using the […] Bicinchoninic acid assay (BCA) for protein quantification (Pierce, Ill., USA).

Row | Compound | expression of procollagen alpha1 (I) mRNA and protein ([1]; DHEA (5%) in ethanol:olive oil (1:2), 12 times over 4 weeks, aged and young skin) | basal expression of MMP-1 mRNA and protein ([1]; DHEA (5%) topical, 12 times over 4 weeks) | expression of TIMP-1 protein ([1]; DHEA (5%) topical, aged skin) | maximum solubility in mid chain triglycerides [2] | skin status (hydration, epidermal thickness, sebum production, pigmentation) ([3]; aged 60 years and over) | harmful consequences [3] | Size [4] | Conjugation [5]
1 | C[C@]12CC[C@H](O)CC1=CC[C@@H]1[C@@H]2CC[C@]2(C)C(=O)CC[C@@H]12 [DHEA, dehydroepiandrosterone] | significantly increase | significantly decreased | increased | 1.77% | improvement of the skin status | no harmful consequences |  | 
2 | rituximab immunonanoparticles: thiolated PEG-PLGA50,000/PLGA48,000 nanoparticles surface-conjugated to rituximab MAb |  |  |  |  |  |  | 73.75 nm | 86.7%
